Assay results reported in patent USRE48335E1, “Polymyxin derivatives as antimicrobial compounds” (priority 2014, dated 2020).
In brackets after ≈: the same amount, converted by molar mass. Positions of bridges follow the written chain, without caps; N, C: chain ends. Non-standard residues stand in square brackets, D forms with d. Residues, ends and D or L forms follow the SMILES beside them. *: point of attachment. Benzoyl(3-CF3) = O=C(c1cccc(C(F)(F)F)c1)*; X9 = Cc1ccc(C(=O)*)cc1C(F)(F)F; X10 = O=C(c1cc(F)cc(Cl)c1)*; dNle = CCCC[C@@H](N)C(=O)O; Dab = NCC[C@H](N)C(=O)O; Abu = CC[C@H](N)C(=O)O; Dap = NC[C@H](N)C(=O)O

Legend:
A. baumannii ATCC 19606 = test: In vivo efficacy in mouse blood infection model (neutropenic Swiss mice); conditions: compound, free base 4 mg/kg intravenously 2 h after inoculation, blood at 4 h
In short: (§1)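 Activity expressed as Δlog10 CFU/mL blood, treated minus saline control, 4 h after a single 4 mg/kg (free base) i.v. dose given 2 h post-infection. Bloodstream infection from i.v. early log-phase inoculum in Swiss mice made neutropenic by i.p. cyclophosphamide on days −4 (150 mg/kg) and −1 (100 mg/kg).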

P. aeruginosa ATCC 27853 = test: as above; conditions: compound, free base 4 mg/kg intravenously 2 h after inoculation, blood at 4 h
In short: as §1

Pseudomonas aeruginosa = system: Pseudomonas aeruginosa
In short: (§2)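 Lipopeptide TFA salts are serially diluted in cation-adjusted Mueller-Hinton broth and inoculated per the CLSI M100-S18 broth microdilution method. The MIC is then recorded, with polymyxin B sulphate included as a control.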

Enterobacter cloacae = system: Enterobacter cloacae
In short: as §2

Acinetobacter baumannii = system: Acinetobacter baumannii
In short: as §2

Klebsiella pneumoniae = system: Klebsiella pneumoniae
In short: as §2

[1] = system: K. pneumoniae FADDI-KP032; test: In vivo efficacy in mouse blood infection model (neutropenic Swiss mice); conditions: compound, free base 4 mg/kg intravenously 2 h after inoculation, blood at 4 h
In short: as §1

For `CC[C@@H]1NC(=O)[C@@H](CC(C)C)NC(=O)[C@H](CCN)NC(=O)[C@@H](NC(=O)[C@H](CN)NC(=O)[C@@H](NC(=O)[C@H](CCN)NC(=O)c2ccc(C)c(C(F)(F)F)c2)[C@@H](C)O)CCNC(=O)[C@H]([C@@H](C)O)NC(=O)[C@H](CCN)NC(=O)[C@H](CCN)NC1=O` [Compound 113] (X9-[Dab]T[Dap][Dab][Dab][dL][Abu][Dab][Dab]T; lactam 4-C), the “Δ log (Treated-Control at 4 h)” value (A. baumannii ATCC 19606) was −1.60 log10 CFU/mL, the “Δ log (Treated-Control at 4 h)” value (P. aeruginosa ATCC 27853) was −2.61 log10 CFU/mL and the MIC (Pseudomonas aeruginosa) was 0.5 µg/mL (≈ 0.426 µM). For the same compound, the “Minimum inhibitory concentration, Pa ATCC 27853” value (Pseudomonas aeruginosa) was 1 µg/mL (≈ 0.852 µM), the “Minimum inhibitory concentration, Pa FADDI-PA022” value (Pseudomonas aeruginosa) was 0.5 µg/mL (≈ 0.426 µM) and the “Minimum inhibitory concentration, Pa FADDI-PA025” value (Pseudomonas aeruginosa) was 2 µg/mL (≈ 1.7 µM). For the same compound, the “Minimum inhibitory concentration, Ec FADDI-EC001” value (Enterobacter cloacae) was 1 µg/mL (≈ 0.852 µM), the “Minimum inhibitory concentration, Ec FADDI-EC003” value (Enterobacter cloacae) was 0.25 µg/mL (≈ 0.213 µM) and the “Minimum inhibitory concentration, Ec FADDI-EC006” value (Enterobacter cloacae) was 1 µg/mL (≈ 0.852 µM). For the same compound, the MIC (Acinetobacter baumannii) was 0.5 µg/mL (≈ 0.426 µM), the “Minimum inhibitory concentration, Ab A ATCC 17978” value (Acinetobacter baumannii) was 0.25 µg/mL (≈ 0.213 µM) and the “Minimum inhibitory concentration, Ab ATCC 19606” value (Acinetobacter baumannii) was 0.5 µg/mL (≈ 0.426 µM). The “Minimum inhibitory concentration, Ab FADDI-AB034” value (Acinetobacter baumannii) was 0.25 µg/mL (≈ 0.213 µM) and the MIC (Klebsiella pneumoniae) was 0.25 µg/mL (≈ 0.213 µM).

`CC[C@@H]1NC(=O)[C@@H](CC(C)C)NC(=O)[C@H](CCN)NC(=O)[C@@H](NC(=O)[C@H](CN)NC(=O)[C@@H](NC(=O)[C@H](CCN)NC(=O)c2cc(F)cc(Cl)c2)[C@@H](C)O)CCNC(=O)[C@H]([C@@H](C)O)NC(=O)[C@H](CCN)NC(=O)[C@H](CCN)NC1=O` [Compound 116] (X10-[Dab]T[Dap][Dab][Dab][dL][Abu][Dab][Dab]T; lactam 4-C) was tested, and the “Δ log (Treated-Control at 4 h)” value (A. baumannii ATCC 19606) was −1.51 log10 CFU/mL, the “Δ log (Treated-Control at 4 h)” value (P. aeruginosa ATCC 27853) was −2.81 log10 CFU/mL and the MIC (Pseudomonas aeruginosa) was 0.5 µg/mL (≈ 0.437 µM). The “Minimum inhibitory concentration, Pa ATCC 27853” value (Pseudomonas aeruginosa) was 0.5 µg/mL (≈ 0.437 µM), the “Minimum inhibitory concentration, Pa FADDI-PA022” value (Pseudomonas aeruginosa) was 0.5 µg/mL (≈ 0.437 µM) and the “Minimum inhibitory concentration, Pa FADDI-PA025” value (Pseudomonas aeruginosa) was 1 µg/mL (≈ 0.874 µM). The “Minimum inhibitory concentration, Ec FADDI-EC001” value (Enterobacter cloacae) was 0.25 µg/mL (≈ 0.219 µM), the “Minimum inhibitory concentration, Ec FADDI-EC003” value (Enterobacter cloacae) was 0.25 µg/mL (≈ 0.219 µM) and the “Minimum inhibitory concentration, Ec FADDI-EC006” value (Enterobacter cloacae) was 0.25 µg/mL (≈ 0.219 µM). For the same compound, the MIC (Acinetobacter baumannii) was 0.5 µg/mL (≈ 0.437 µM), the “Minimum inhibitory concentration, Ab A ATCC 17978” value (Acinetobacter baumannii) was 0.5 µg/mL (≈ 0.437 µM) and the “Minimum inhibitory concentration, Ab ATCC 19606” value (Acinetobacter baumannii) was 0.5 µg/mL (≈ 0.437 µM). For the same compound, the “Minimum inhibitory concentration, Ab FADDI-AB034” value (Acinetobacter baumannii) was 0.25 µg/mL (≈ 0.219 µM) and the MIC (Klebsiella pneumoniae) was 0.5 µg/mL (≈ 0.437 µM).

In the case of `CC[C@@H]1NC(=O)[C@@H](Cc2ccccc2)NC(=O)[C@H](CCN)NC(=O)[C@@H](NC(=O)[C@H](CN)NC(=O)[C@@H](NC(=O)[C@H](CCN)NC(=O)c2cccc(C(F)(F)F)c2)[C@@H](C)O)CCNC(=O)[C@H]([C@@H](C)O)NC(=O)[C@H](CCN)NC(=O)[C@H](CCN)NC1=O` [Compound 122] ({Benzoyl(3-CF3)}-[Dab]T[Dap][Dab][Dab][dF][Abu][Dab][Dab]T; lactam 4-C), the “Δ log (Treated-Control at 4 h)” value (A. baumannii ATCC 19606) is reported as −1.58 log10 CFU/mL, the “Δ log (Treated-Control at 4 h)” value (P. aeruginosa ATCC 27853) is reported as −3.70 log10 CFU/mL and the MIC (Pseudomonas aeruginosa) is reported as 2 µg/mL (≈ 1.68 µM). The “Minimum inhibitory concentration, Pa ATCC 27853” value (Pseudomonas aeruginosa) was 2 µg/mL (≈ 1.68 µM), the “Minimum inhibitory concentration, Pa FADDI-PA022” value (Pseudomonas aeruginosa) was 2 µg/mL (≈ 1.68 µM) and the “Minimum inhibitory concentration, Pa FADDI-PA025” value (Pseudomonas aeruginosa) was 2 µg/mL (≈ 1.68 µM). The “Minimum inhibitory concentration, Ec FADDI-EC001” value (Enterobacter cloacae) was 0.5 µg/mL (≈ 0.419 µM), the “Minimum inhibitory concentration, Ec FADDI-EC003” value (Enterobacter cloacae) was 0.5 µg/mL (≈ 0.419 µM) and the “Minimum inhibitory concentration, Ec FADDI-EC006” value (Enterobacter cloacae) was 0.25 µg/mL (≈ 0.21 µM). For the same compound, the MIC (Acinetobacter baumannii) was 0.5 µg/mL (≈ 0.419 µM), the “Minimum inhibitory concentration, Ab A ATCC 17978” value (Acinetobacter baumannii) was 0.25 µg/mL (≈ 0.21 µM) and the “Minimum inhibitory concentration, Ab ATCC 19606” value (Acinetobacter baumannii) was 0.5 µg/mL (≈ 0.419 µM). The “Minimum inhibitory concentration, Ab FADDI-AB034” value (Acinetobacter baumannii) was 0.5 µg/mL (≈ 0.419 µM) and the MIC (Klebsiella pneumoniae) was 0.5 µg/mL (≈ 0.419 µM).

In the case of `CCCC[C@H]1NC(=O)[C@H](CCN)NC(=O)[C@@H](NC(=O)[C@H](CN)NC(=O)[C@@H](NC(=O)[C@H](CCN)NC(=O)c2cccc(C(F)(F)F)c2)[C@@H](C)O)CCNC(=O)[C@H]([C@@H](C)O)NC(=O)[C@H](CCN)NC(=O)[C@H](CCN)NC(=O)[C@H]([C@@H](C)O)NC1=O` [Compound 123] ({Benzoyl(3-CF3)}-[Dab]T[Dap][Dab][Dab][dNle]T[Dab][Dab]T; lactam 4-C), the “Δ log (Treated-Control at 4 h)” value (A. baumannii ATCC 19606) is reported as −1.53 log10 CFU/mL, the “Δ log (Treated-Control at 4 h)” value (P. aeruginosa ATCC 27853) is reported as −2.96 log10 CFU/mL and the MIC (Pseudomonas aeruginosa) is reported as 0.5 µg/mL (≈ 0.425 µM). For the same compound, the “Minimum inhibitory concentration, Pa ATCC 27853” value (Pseudomonas aeruginosa) was 0.5 µg/mL (≈ 0.425 µM), the “Minimum inhibitory concentration, Pa FADDI-PA022” value (Pseudomonas aeruginosa) was 0.5 µg/mL (≈ 0.425 µM) and the “Minimum inhibitory concentration, Pa FADDI-PA025” value (Pseudomonas aeruginosa) was 2 µg/mL (≈ 1.7 µM). For the same compound, the “Minimum inhibitory concentration, Ec FADDI-EC001” value (Enterobacter cloacae) was 0.5 µg/mL (≈ 0.425 µM), the “Minimum inhibitory concentration, Ec FADDI-EC003” value (Enterobacter cloacae) was 0.5 µg/mL (≈ 0.425 µM) and the “Minimum inhibitory concentration, Ec FADDI-EC006” value (Enterobacter cloacae) was 1 µg/mL (≈ 0.851 µM). For the same compound, the MIC (Acinetobacter baumannii) was 1 µg/mL (≈ 0.851 µM), the “Minimum inhibitory concentration, Ab A ATCC 17978” value (Acinetobacter baumannii) was 1 µg/mL (≈ 0.851 µM) and the “Minimum inhibitory concentration, Ab ATCC 19606” value (Acinetobacter baumannii) was 1 µg/mL (≈ 0.851 µM). For the same compound, the “Minimum inhibitory concentration, Ab FADDI-AB034” value (Acinetobacter baumannii) was 0.5 µg/mL (≈ 0.425 µM) and the MIC (Klebsiella pneumoniae) was 0.5 µg/mL (≈ 0.425 µM).

In the case of `C[C@@H]1NC(=O)[C@@H](Cc2ccccc2)NC(=O)[C@H](CCN)NC(=O)[C@@H](NC(=O)[C@H](CN)NC(=O)[C@@H](NC(=O)[C@H](CCN)NC(=O)c2cccc(C(F)(F)F)c2)[C@@H](C)O)CCNC(=O)[C@H]([C@@H](C)O)NC(=O)[C@H](CCN)NC(=O)[C@H](CCN)NC1=O` [Compound 126] ({Benzoyl(3-CF3)}-[Dab]T[Dap][Dab][Dab][dF]A[Dab][Dab]T; lactam 4-C), the “Δ log (Treated-Control at 4 h)” value [1] is reported as −2.68 log10 CFU/mL, the “Δ log (Treated-Control at 4 h)” value (P. aeruginosa ATCC 27853) is reported as −3.97 log10 CFU/mL and the MIC (Pseudomonas aeruginosa) is reported as 0.25 µg/mL (≈ 0.212 µM). For the same compound, the “Minimum inhibitory concentration, Pa ATCC 27853” value (Pseudomonas aeruginosa) was 0.25 µg/mL (≈ 0.212 µM), the “Minimum inhibitory concentration, Pa FADDI-PA022” value (Pseudomonas aeruginosa) was 1 µg/mL (≈ 0.848 µM) and the “Minimum inhibitory concentration, Pa FADDI-PA025” value (Pseudomonas aeruginosa) was 2 µg/mL (≈ 1.7 µM). The “Minimum inhibitory concentration, Ec FADDI-EC001” value (Enterobacter cloacae) was 0.5 µg/mL (≈ 0.424 µM), the “Minimum inhibitory concentration, Ec FADDI-EC003” value (Enterobacter cloacae) was 0.5 µg/mL (≈ 0.424 µM) and the “Minimum inhibitory concentration, Ec FADDI-EC006” value (Enterobacter cloacae) was 0.5 µg/mL (≈ 0.424 µM). The MIC (Acinetobacter baumannii) was 1 µg/mL (≈ 0.848 µM), the “Minimum inhibitory concentration, Ab A ATCC 17978” value (Acinetobacter baumannii) was 1 µg/mL (≈ 0.848 µM) and the “Minimum inhibitory concentration, Ab ATCC 19606” value (Acinetobacter baumannii) was 1 µg/mL (≈ 0.848 µM). For the same compound, the “Minimum inhibitory concentration, Ab FADDI-AB034” value (Acinetobacter baumannii) was 1 µg/mL (≈ 0.848 µM) and the MIC (Klebsiella pneumoniae) was 0.5 µg/mL (≈ 0.424 µM).
